In patent US20030158184A1, “Nitrosated and nitrosylated phosphodiesterase inhibitor compounds, compositions and their uses” (priority 2001, published 2003):

Test system: human corpus cavernosum tissue
Conditions: doses of 10 μM and 30 μM; compared with equimolar dose of dipyridamole; tissue contracted with phenylephrine 7×10^−7 M; 0% = phenylephrine contraction, −100% = tone after papaverine 10^−4 M; FIG. 40
Experimental: The tissue was maintained in a chilled Krebs-bicarbonate solution prior to assay. The tissue was cut into strips of 0.3×0.3×1 cm and suspended in organ chambers for isometric tension measurement. Tissues were incrementally stretched until optimal isometric tension for contraction was obtained. […] At the end of the experiment papaverine (10^−4 M) is added to obtain maximal relaxation. […] Data are expressed as the percent loss in tone from the phenylephrine-induced contraction (0% =phenylephrine contraction; −100%=tone after the administration of papaverine).

Structure (SMILES): CC(C)(CC(=O)OCCN(CCOC(=O)CC(C)(C)SN=O)c1nc(N2CCCCC2)c2nc(N(CCOC(=O)CC(C)(C)SN=O)CCOC(=O)CC(C)(C)SN=O)nc(N3CCCCC3)c2n1)SN=O [Example 1, 2.6-bis(diethyl(3-methyl-3(nitrosothiol)butyric acid ester)amino)-4.8-dipipendinopyrimido-[5,4d]-pyrimidine]
- relaxation of the phenylephrine-induced contraction (percent loss in tone from the phenylephrine-induced contraction): more efficacious
